Results from patent US4179508A, “Sulfur-containing derivatives of 4,4-dimethyl-2H,4H-isoquinoline-1,3-dione, and anticonvulsant and antihyperlipidemic compositions thereof” (Boehringer Ingelheim GmbH, priority 1977, dated 1979).
Like-named read-outs stand apart in the source and are kept apart here.

Tests used:
Assay type in all cases: in vivo
[1] = system: hind limb tonic extensor component of the maximal seizure pattern; test: Anticonvulsive activity in mice, maximal electroshock seizure pattern method; settings: Mus musculus, male mice, oral, maximal electroshock 50 mA, 0.2 sec.
Procedure: (§1) The anticonvulsive activity and toxicity of the compounds of this invention were ascertained by the methods described below, and tables I and II show the results of these tests for a few representative species of the genus, where
Male mice with body weights of between 20 and 26 gm were used as the test animals. They were allowed free access to food and water up to one hour before administration of the test compound. The tests were carried out by using the maximal electroshock seizure pattern method [SWINYARD et, J. Pharmacol. exp. Ther. 106, 319 (1952)].
The electroshock apparatus was constructed according to WOODBURY and DAVENPORT [Arch. int. Pharmacodyn. 99, 97 (1952)]. The electric impulses (50 Hz A.C., 50 mA, 0.2 sec.) were delivered via steel ball electrodes covered with buckskin and moistened with an aqueous 0.9% sodium chloride solution to the heads by way of the eyes of the mice. The test is a measure of the ability of an anticonvulsant drug to abolish the hind limb tonic extensor component of the maximal seizure pattern induced by electric stimulation. The test compound was suspended in 1% of tylose and administered orally in a volume of 0.1 ml per 10 gm of mouse, and each dosage was administered to a group of 10 animals. Control groups received the suspension agent orally. 30, 150 and 300 minutes after administration all animals were shocked. ED50 values were determined by the graphic statistical method of LITCHFIELD and WILCOXON [J. Pharmacol. exp. Therap. 96, 99 (1949)] as a measure of the ability of the test compounds to abolish the hindlimb tonic extensor compound of the maximal seizure pattern in 50 percent of the animals.

Acute toxicity = settings: mouse, in vivo, po; mice, p.o., groups of 10, observation time 4 days
Procedure: as §1
(§2) The acute toxicity of the compounds was determined after administration of various dosages to groups of 10 mice with body weights of between 20 and 26 gm (observation time: 4 days).

mice = test: Acute toxicity; settings: 500 mgm/kg p.o., observation time 4 days
Procedure: as §1, §2

[2] = 0.5 h, shocked 30 minutes after administration, read-out: ED50, 30 minutes
[3] = 2.5 h, shocked 150 minutes after administration, read-out: ED50, 150 minutes
[4] = 5 h, shocked 300 minutes after administration, read-out: ED50, 300 minutes

| Structure (SMILES) | ED50 [1, 2] [mg/kg] | ED50 [1, 3] [mg/kg] | ED50 [1, 4] [mg/kg] | LD50 at 96 h (Acute toxicity) [mg/kg] | animals died (mice) |
| --- | --- | --- | --- | --- | --- |
| C[S+]([O-])CCN1C(=O)c2ccccc2C(C)(C)C1=O (stereo not drawn) [B, 4,4-Dimethyl-2-(2-methylsulfinyl-ethyl)-2H,4H-isoqionoline-1,3-dione] | 14.5 | 16.8 | 25 | ~500 | 4 of 10 |
| CSCCN1C(=O)c2ccccc2C(C)(C)C1=O [Compound A, 4,4-Dimethyl-2-(2-methylmercapto-ethyl)-2H,4H-isoquinoline-1,3-dione] | 17.3 | 22.8 | 27.8 | > 500 | 0 of 10 |
| CC1(C)C(=O)N(CCS(C)(=O)=O)C(=O)c2ccccc21 [C, 4,4-Dimethyl-2-(2-methylsulfonyl-ethyl)-2H,4H-isoquinoline-1,3-dione] | 26.3 | 35.2 | 32.5 | > 500 | 1 of 10 |
| CSCN1C(=O)c2ccccc2C(C)(C)C1=O [D, 4,4-Dimethyl-2-(methylmercapto-methyl)-2H,4H-isoquinoline-1,3-dione] | 28 | 16.2 | 19.8 |  |  |
| C[S+]([O-])CN1C(=O)c2ccccc2C(C)(C)C1=O (stereo not drawn) [E, 4,4-Dimethyl-2-(methylsulfinyl-methyl)-2H,4H-isoquinoline-1,3-dione] | 8.3 | 10.5 | 11.5 |  |  |
